According to a melting point compilation (Tetko et al.; mined from patent text by program, amines drawn as free bases though some values may be those of a salt):

melting point	SMILES
161 to 162 °C	CCCCCn1ncc2c(N)c3c(nc21)CCNC3=O
201 to 203 °C	N#Cc1cccc(-c2nc(-c3cccnc3)no2)n1
157 to 158 °C	CN(C)C=NS(=O)(=O)c1cc(Br)cc(Br)c1
164 to 166 °C	COC(=O)c1ccc2c(c1)CN(S(=O)(=O)c1ccc(C)cc1)C2
70 to 72 °C	COc1ccc(C=O)cc1OC(=O)c1ccccc1
146 to 147 °C	CCCc1sc(NC(=O)C2CCCCC2)c(C#N)c1OC
85 to 87 °C	CCOC(=O)CCc1cc(CCC(=O)O)cc(Oc2cccnc2)c1
223 to 225 °C	CCc1ccc(-n2c(-c3ccc(SC)cc3)nc(SC)c(C#N)c2=O)cc1
166 to 167 °C	CCOC(=O)C1(C2c3[nH]c4ccc(Cl)cc4c3CCN2C(=O)c2ccno2)CCC1 (stereo not given)
160 °C	Clc1nc2ccnn2c2ncccc12
221 to 225 °C	O=C1Nc2cc(-c3ccc(C(F)(F)F)cc3)ccc2C1c1cc(Cl)ccc1O (stereo not given)
153 to 155 °C	COc1cc(Nc2nc3cccc(-c4cccc(C)c4)c3o2)cc(OC)c1OC
136 to 137 °C	CC(C)c1nc(-c2ccccc2)c(F)c(-c2ccc(F)cc2)c1C=O
216 to 217 °C	N#Cc1cc(-c2ncccc2C(=O)O)ccc1OCCc1ccccc1[N+](=O)[O-]
123 to 124 °C	O=S(=O)(c1ccc(Br)s1)N1CCN(c2ccc(F)cc2)CC1
85 to 87 °C	Fc1ccc(-n2nc(N3CCNCC3)c3ccccc32)cc1
138 to 139 °C	O=C(c1ccc2nonc2c1)N1CC2CCC1CC2
182 to 184 °C	COc1c(C2CCN(CCCCNC(=O)c3ccc(-c4ccc(NS(=O)(=O)CC(F)(F)F)cc4)cc3)CC2)ccc2c1CCCC2
248 to 249 °C	CC1(C)Oc2ccsc2C(NC(=O)c2cccnc2)C1O (stereo not given)
120 to 122 °C	N#Cc1ccc([C@H]2CC[C@H](O)CC2)cc1
143 to 144 °C	CC(=O)n1c(SC(F)(F)C(F)F)nc(-c2ccccc2)c1-c1ccccc1
168 to 171 °C	CC(=O)OCc1ccc2oc(=O)c(C(=O)Oc3cc(Cl)ccc3Cl)cc2c1
198 to 199 °C	COc1cccc2c(=O)n3c(C)c(Br)sc3nc12
144 to 146 °C	CCCc1nc(C(C)(C)O)c(C(=O)OCOC(=O)OC(C)C)[nH]1

melting point	SMILES
49.5 to 50.5 °C	Cc1c(Cl)c(Cl)c(SC(F)(F)F)c(Cl)c1Cl
121 to 122 °C	COc1ccc(CN2C(=O)[C@H](CO)[C@H]2S(=O)(=O)C(C)(C)C)cc1
194 to 197 °C	COc1ccc2c(c1)C(=O)N(c1ccc3ncccc3c1)C2
261 to 266 °C	NC(=O)c1cc(Br)c(O)c(Br)n1
65 to 66 °C	CN(C)C(=O)n1nc(N(C)C)c2ccc(Cl)cc21
223 to 226 °C	Cc1c(-c2ccc(O)cc2)sc(C=O)c1-c1ccc(O)c(F)c1
200 to 201 °C	Cn1ncc(/C=C/C(=O)Nc2ccc(Cc3nn(C)c(=O)o3)cc2)c1-c1ccc(F)cc1
187 °C	COC(C)=CC(=O)Nc1cccc([N+](=O)[O-])c1
271 to 276 °C	CS(=O)(=O)OCCn1c2ccc(O)cc2c2c3c(c(-c4ccccc4)cc21)C(=O)NC3=O
128 to 129 °C	CCCCCN(CCC12CC3CC(CC(C3)C1)C2)C(=O)NC(C)CCc1ccncc1 (stereo not given)
126 to 128 °C	CCOC(=O)C(=NOCCCl)c1csc(N)n1
105 to 107 °C	CC(=O)NCC1CN(c2ccc(N3CCN(C(=O)COC(=O)CO)CC3)c(F)c2)C(=O)O1 (stereo not given)
154 to 156 °C	CC(c1oc2ccccc2c(=O)c1-c1cccc(F)c1)n1nc(-c2csc(CO)c2)c2c(N)ncnc21 (stereo not given)
128 to 132 °C	COc1cc(Cc2cnc(N)nc2N)c2c(c1OC)OC(C)CC2=O (stereo not given)
148 °C	CCN(CC)CC1CN=C(NC(=O)Nc2ccccc2)O1 (stereo not given)
76 to 78 °C	CCCNC(=O)ON(C(=O)NCCC)C(=O)C1CC1
305 °C	Cc1ccc2[nH]c3c(C(=O)O)cccc3c2c1Cl
48 to 49 °C	COC1=CC(=O)C(OC)=C(CCCCCC2=C(OC)C(=O)C(C)=C(OC)C2=O)C1=O
184 to 188 °C	CCc1nnc2c(OC)nc3cc(OC)ccc3n12
90 to 91 °C	CSC1=C(C#N)C(c2ccc(N(C)C)cc2)(c2cccnc2)C(=O)N1CCCN(C)C (stereo not given)
89 to 90 °C	CN=C1c2ccccc2CCc2ccccc21
211 to 213 °C	Cc1[nH]c(=O)n(-c2cc(C(=O)OC(C)C)c(Cl)cc2F)c(=O)c1I
94 °C	CCOP(=O)(OCC)C1CCNc2ccc(C(F)(F)F)cc21 (stereo not given)
176 to 178 °C	OC1(c2ccccc2)c2ccccc2C2=NC3CCCCC3N21 (stereo not given)

melting point	SMILES
151 to 153 °C	Cc1ccc(-c2nc3ccc(C#N)cn3c2CN(C)C(=O)CC(C)C)cc1
152 to 154 °C	COc1ccc(-c2ccc(OC(CCC3=CCCCC3)C(=O)O)cc2)cc1 (stereo not given)
128 to 130 °C	CC(C)OC(=O)NC(C(=O)N1CCCC1C(=O)O)C(C)(C)SC(C)C (stereo not given)
163 °C	CCOC(=O)c1cc2ccc(Oc3ccc([N+](=O)[O-])cc3)cc2oc1=O
86 to 88 °C	CCOC(=O)Nc1ccc(OC)c(OC)c1C=O
179 °C	c1c2c(nc3c1CCCCC3)CCCCC2
156 to 158 °C	Cc1nc2cc(NC(=O)c3ccco3)ccc2o1
134 to 138 °C	C[C@@H]1Cc2ccsc2[C@H](C)N1CCCNS(=O)(=O)c1ccc(N)cc1 (relative stereo)
148 to 150 °C	CC(C)c1ccc2oc(C(O)COc3ccc(C(=O)O)cc3)cc2c1 (stereo not given)
167 to 168 °C	Cc1c(NC(=O)c2ccc(OC[C@@H]3CCCO3)cc2F)ccc2cc(CNCC(C)(C)O)cnc12
254 to 257 °C	c1cc2cc(-n3cnnc3)ncc2[nH]1
186 to 187 °C	NNC(=S)NN=Cc1ccco1
120 to 122 °C	NC(=S)NN=C(CCCCl)c1cccs1
209 to 211 °C	Nc1cc(Cl)nc(C(=O)NOCc2ccc(F)cc2)c1Cl
116 to 117 °C	CC1(C)CC(=O)C(C(=O)Nc2cccc(C(F)(F)F)c2)C(=O)C1
295 to 297 °C	CC1N=NC2=CN=C(c3ccccc3Cl)c3cc(C(=O)Cl)ccc3N21 (stereo not given)
72 to 76 °C	Cc1cc([N+](=O)[O-])c(Cl)nc1C
105 to 109 °C	FC(F)(F)c1ccc(OCCc2c[nH]cn2)cc1
275 to 279 °C	O=C(c1cccc([N+](=O)[O-])c1)n1c2cc(O)c(O)cc2c2ccc(O)c(O)c21
164 to 165 °C	COC(=O)c1c(C)c(OC)cc(OC)c1C=O
201 to 202 °C	O=C(Nc1ccc(-c2ccccc2)cc1)c1ccc2n1Cc1ccccc1N(C(=O)COc1ccc(Cl)cc1)C2
110 °C	CC(C)NCC(O)COc1cccnc1N (stereo not given)
111 °C	CSc1ccc(C(C)Nc2nc(N)nc(C(F)(F)F)n2)cc1 (stereo not given)
122 to 124 °C	COc1ccc(-c2ccc(OC)cc2[N+](=O)[O-])cc1

melting point	SMILES
51 to 53 °C	COc1cc(C=O)cc(F)c1OC
266 to 268 °C	Cc1cc(-c2nn(C(C)c3oc4ccccc4c(=O)c3-c3cccc(F)c3)c3ncnc(N)c23)ccn1 (stereo not given)
133 to 135 °C	CN(C)C=CC(=O)c1cncnc1
179 to 182 °C	CCOC(=O)N=C1NCC(Oc2ccc(C(Cc3cc4cc(C#N)ccc4s3)C(=O)OCC)cc2)CN1 (stereo not given)
132 to 134 °C	Cc1cccc(N2CCN(Cc3n[nH]c4ccccc34)CC2)c1
170 to 175 °C	CCN(CC)CCc1cccc(Nc2ncc3c(n2)N(c2cccc(C(N)=O)c2)C(=O)N(c2ccc(OC)cc2)C3C)c1 (stereo not given)
69 to 70 °C	Nc1sc2c(c1C(=O)c1ccc3ccccc3c1)CCC(Cc1ccccc1)C2 (stereo not given)
79 to 80 °C	CC(C)(C)C(=O)CC(Sc1ccccc1)c1ccc(Cl)cc1Cl (stereo not given)
198 to 200 °C	Cc1c(F)c(N2CCNCC2)cc2c1c(=O)c(C(=O)O)cn2-c1ccc(F)cc1F
110 to 111 °C	CCCCCCCCC(SCCCCCC)C(=O)Nc1c(OC)cc(Cl)c2ncccc12 (stereo not given)
113 to 116 °C	CC(C)(C)OC(=O)N[C@@H](C(=O)N1CCC[C@H]1C(=O)NCC1CCc2n[nH]cc2C1)C(c1ccccc1)c1ccccc1 (stereo not given in full)
170 to 173 °C	Nc1sc(CCC(=O)O)cc1C(=O)c1ccccc1Cl
173 to 174 °C	COC(=O)C1C(C)CC2C3CCC4CC(O)CCC4(C)C3C(=O)CC21C (stereo not given)
135 °C	CCC(C)(C)c1ccc(OCC(=O)Nc2cccc(C(C)=O)c2)c(C(C)(C)CC)c1
171 °C	CCCc1nc(CSc2ccc(CCC(=O)O)cc2)c(C(=O)O)n1Cc1cc2c(cc1Cl)OCO2
164 to 165 °C	O=C(NCCCCCCCNC(=O)c1ccc(Oc2ccccc2)cc1)c1ccc(Oc2ccccc2)cc1
191 to 194 °C	O=C(Nc1ccc(CN2C(=O)[C@H]3CCC[C@H]3N(C(=O)CN3C(=O)c4ccccc4C3=O)c3ccccc32)cc1)c1ccc(Cl)cc1 (relative stereo)
198 to 200 °C	O=c1ccn(CCO)c(C(O)c2ccccc2)c1O (stereo not given)
108 to 110 °C	CC1CCCN1CC=CC(=O)Nc1cc2c(Nc3ccc(F)c(Cl)c3)ncnc2cc1OCC1CC1 (stereo not given)
178 to 179 °C	CCOC(=O)NNc1cc(C)c(-c2ccc(Br)cc2)nn1
42 to 44 °C	CCOC(=O)c1cncc(C(=O)OCC)c1
243 to 244 °C	COc1ccc(CC2SC(=O)NC2=O)c2c1N(Cc1ccc(C(=O)Nc3ccc(C(C)C)cc3)cc1)C(=O)CC2 (stereo not given)
148 to 149 °C	COC(=O)C=Cc1ccc(N2CCN(CCC3CCN(C(=O)OC(C)(C)C)CC3)C2=O)cc1

SMILES	melting point
O=C1CN2CCOC2(c2ccccc2F)c2cc(I)ccc2N1CCO (stereo not given)	160 to 165 °C
Nc1ccc2c(c1)OCC(CN1CC=C(c3c[nH]c4ccc(F)cc34)CC1)O2 (stereo not given)	172 to 174 °C
Cc1cc2c(cc1O)C(C)(C)CC1(CC(C)(C)c3cc(OC(C)(C)C(=O)O)c(C)cc3O1)O2 (stereo not given)	99 to 101 °C
CCOC(=O)CCCCCCC(=O)Nc1ccc2c(c1)C(c1ccccc1)=N[C@@H](C)C(=O)N2C	55 to 56 °C
N#CC1CN1C(=O)NC(=O)c1cc2ccccc2o1 (stereo not given)	190 to 192 °C
